Test results reported in patent US20080260716A1, “Method and Composition for High Level Disinfection Employing Quaternary Ammonium Compounds” (priority 2004, published 2008).
Where two headings read alike, the source gives them in different places.

What was measured:
[1] = system: Mycobacterium terrae, B. subtilis, C. sporogens; design: key: satisfies the FDA requirement for high level disinfection (“HLD”); fails to do so (“F”)
[2] = system: B. subtilis spores; assay: AOAC sporicidal test, kill time; assay type: cell-based; details: for B. subtilis (no kill): 48 hrs
[3] = Table 3 Prior art, 0.25% QUAT, 25° C.
[4] = Table 6 unnumbered test, 2% QUAT + 0.2% Protease (Savinase 16 L), 25° C. + 1% borax
[5] = test 3.4, 0.25% QUAT, 62° C. + ultrasound
[6] = test 4.1, 2% QUAT, 25° C. + 1% borax
[7] = test 4.2, 5% QUAT, 25° C. + 1% borax

benzalkonium chloride [QUAT]
HLD Or F [1, 3]: F
HLD Or F [1, 4]: F
HLD or F ([1]; test 1.1, 0.025% QUAT, 25° C.): F
HLD or F ([1]; test 1.2, 0.25% QUAT, 25° C.): F
HLD or F ([1]; test 2.1, 5% QUAT, 30° C.): HLD
HLD or F ([1]; test 2.2, 1.0% QUAT, 40° C.): HLD
HLD or F ([1]; test 2.3, 2.0% QUAT, 40° C.): HLD
HLD or F ([1]; test 2.4, 5.0% QUAT, 40° C.): HLD
HLD or F ([1]; test 2.5, 1.0% QUAT, 50° C.): HLD
HLD or F ([1]; test 2.6, 2.0% QUAT, 50° C.): HLD
HLD or F ([1]; test 2.7, 5.0% QUAT, 50° C.): HLD
HLD or F ([1]; test 2.8, 1.0% QUAT, 80° C.): HLD
HLD Or F ([1]; test 3.1, 0.25% QUAT, 40° C.): F
HLD Or F ([1]; test 3.2, 0.25% QUAT, 50° C.): F
HLD Or F ([1]; test 3.3, 0.25% QUAT, 60° C.): F
HLD Or F [1, 5]: F
HLD Or F ([1]; test 3.5, 1.0% QUAT, 25° C.): F
HLD Or F ([1]; test 3.6, 2.0% QUAT, 25° C.): F
HLD Or F ([1]; test 3.7, 5.0% QUAT, 25° C.): F
HLD Or F ([1]; test 3.8, 0.6%, 40° C.): F
HLD Or F ([1]; test 3.9, 0.6% QUAT, 50° C.): F
HLD or F [1, 6]: F
HLD or F [1, 7]: F
HLD or F ([1]; test 4.3, 1% QUAT, 40° C. + 1% borax): HLD
HLD or F ([1]; test 4.4, 2% QUAT, 40° C. + 1% borax): HLD
HLD or F ([1]; test 4.5, 5% QUAT, 40° C. + 1% borax): HLD
HLD or F ([1]; test 4.6, 2% QUAT, 50° C. + 1% borax): HLD
HLD or F ([1]; test 4.7, 5% QUAT, 50° C. + 1% borax): HLD
HLD Or F ([1]; test 5.2, 2% QUAT, 40° C. + ultrasound 10 min each hour): HLD
HLD Or F ([1]; test 5.3, 5% QUAT, 40° C. + ultrasound 10 min each hour): HLD
HLD Or F ([1]; test 5.4, 1% QUAT, 40° C. + ultrasound 10 min each hour): HLD
HLD Or F ([1]; test 5.5, 2% QUAT + 1% borax, 40° C. + ultrasound 10 min each hour): HLD
HLD Or F ([1]; test 5.6, 5% QUAT + 1% borax, 40° C. + ultrasound 10 min each hour): HLD
HLD Or F ([1]; test 5.7, 2% QUAT + 1% borax + Protease, 40° C. + ultrasound 10 min each hour): HLD
HLD Or F ([1]; test 6.1, 2% QUAT + 0.2% Protease (Savinase 16 L), 25° C.): F
HLD Or F ([1]; test 6.2, 2% QUAT + 0.2% Protease (Savinase 16 L), 40° C.): HLD
HLD Or F ([1]; test 6.3, 2% QUAT + 0.2% Protease (Savinase 16 L), 40° C. + 1% borax): HLD
HLD Or F ([1]; test 6.4, 2% QUAT + 0.2% Protease (Savinase 16 L), 50° C.): HLD
HLD Or F ([1]; test 6.5, 2% QUAT + 0.2% Protease (Savinase 16 L), 50° C. + 1% borax): HLD
HLD Or F ([1]; test 6.6, 2% QUAT + 0.2% Protease (Savinase 16 L), 40° C. + ultrasound 10 min each hour + 1% borax): HLD
HLD Or F ([1]; test 6.7, 2% QUAT + 1% borax + Protease, 40° C. + ultrasound 10 min each hour): HLD
Kill Time B. subtilis [2, 3]: >24 h
Kill Time B. subtilis [2, 4]: >48 h
B. subtilis (no kill) [2, 4]: (no kill) (“No kill” means less than 2 log reduction from the initial population)
kill time of B. subtilis ([2]; above 1% w/w of quat, 40° C.): less than 2 hours
Kill Time B. subtilis ([2]; test 1.1, 0.025% QUAT, 25° C.): >24 h
Kill Time B. subtilis ([2]; test 1.2, 0.25% QUAT, 25° C.): >24 h
Kill Time B. subtilis ([2]; test 2.1, 5% QUAT, 30° C.): <2 h
Kill Time B. subtilis ([2]; test 2.2, 1.0% QUAT, 40° C.): <2 h
Kill Time B. subtilis ([2]; test 2.3, 2.0% QUAT, 40° C.): <2 h
Kill Time B. subtilis ([2]; test 2.4, 5.0% QUAT, 40° C.): <1 h
Kill Time B. subtilis ([2]; test 2.5, 1.0% QUAT, 50° C.): <1 h
Kill Time B. subtilis ([2]; test 2.6, 2.0% QUAT, 50° C.): <1 h
Kill Time B. subtilis ([2]; test 2.7, 5.0% QUAT, 50° C.): <1 h
Kill Time B. subtilis ([2]; test 2.7, 5.0% QUAT, 50° C., listed as quat): less than one hour
Kill Time B. subtilis ([2]; test 2.8, 1.0% QUAT, 80° C.): <1 h
Kill Time B. subtilis ([2]; test 2.8, 1.0% QUAT, 80° C., listed as quat): less than one hour
Kill Time B. subtilis ([2]; test 3.1, 0.25% QUAT, 40° C.): >24 h
Kill Time B. subtilis ([2]; test 3.2, 0.25% QUAT, 50° C.): >24 h
Kill Time B. subtilis ([2]; test 3.3, 0.25% QUAT, 60° C.): >24 h
Kill Time B. subtilis [2, 5]: >24 h
Kill Time B. subtilis ([2]; test 3.5, 1.0% QUAT, 25° C.): >48 h
B. subtilis (no kill) ([2]; test 3.5, 1.0% QUAT, 25° C.): (no kill) (“No kill” means less than 2 log reduction from the initial population)
Kill Time B. subtilis ([2]; test 3.6, 2.0% QUAT, 25° C.): >48 h
B. subtilis (no kill) ([2]; test 3.6, 2.0% QUAT, 25° C.): (no kill) (“No kill” means less than 2 log reduction from the initial population)
Kill Time B. subtilis ([2]; test 3.7, 5.0% QUAT, 25° C.): >48 h
B. subtilis (no kill) ([2]; test 3.7, 5.0% QUAT, 25° C.): (no kill) (“No kill” means less than 2 log reduction from the initial population)
Kill Time B. subtilis ([2]; test 3.8, 0.6%, 40° C.): >24 h
Kill Time B. subtilis ([2]; test 3.9, 0.6% QUAT, 50° C.): <16 h
Kill Time B. subtilis [2, 6]: >48 h
B. subtilis (no kill) [2, 6]: (no kill) (“No kill” means less than 2 log reduction from the initial population)
Kill Time B. subtilis [2, 7]: >48 h
